Tested on: not listed separately
Assay: NO release in PBS versus rat plasma (Griess reaction)
Format: in vitro ADME
Conditions: 100 μM in PBS versus rat plasma, 37° C., readings at 0 minutes, 30 minutes, 3 hours; classified and ranked on NO release behavior
Method: The compounds were dissolved in DMSO and added to PBS and then incubated at 37° C. NO release was measured using the Griess reaction at t=0, 30 minutes, and 3 hours. NO production in this assay was an indication of the hydrolytic instability of the capping group. […] Compounds were dissolved in DMSO and added to rat plasma and then incubated at 37° C. NO release was measured using the Griess reaction at t=0, 30 minutes, and 3 hours. Differences in the amount and rate of NO release reflect the kinetics of hydrolysis of the capping groups by proteases endogenous to the rat plasma. This experiment reflected the ability of compounds to release NO in vivo. For both panels A and B, the compounds tested are labelled as: 506-3-91 is Compound 31, 506-3-159 is Compound 33, 506-3-123 is Compound 32, 506-3-149 is Compound 30, 506-3-117 is Compound 26506-3-121 is Compound 29, 506-3-153 is Compound 27, 506-3-151 is Compound 28, 506-3-145 is Compound 7, 506-3-93 is Compound 10, 506-3-113 is Compound 4, 506-3-111 is Compound 11, 506-3-133 is Compound 12, 506-3-131 is Compound 13, 506-3-81 is Compound 14, 506-3-103 is Compound 18, 506-3-157 is Compound 19, 506-3-115 is Compound 9, 506-3-143 is Compound 6, and 506-3-147 is Compound 8. For all compounds, three time points are shown (left to right for each labelled compound): 0 time point, 30 minutes time point, and 3 hours time point.
Compounds were tested for release of NO in PBS versus rat plasma using the Griess reaction. The Griess reaction works by the colorimetric measurement of nitrite levels which is the primary breakdown product of NO. To determine stability, as well as NO release behavior in a biological environment, the compounds were tested for NO release in both PBS and rat plasma at 37° C. […]
Additional experiments were carried out to test the NO release capability of 100 μM of the compounds in PBS versus Rat Plasma. In these experiments, NO release kinetics was explored by taking readings at 0 minutes, 30 minutes, and 3 hours. The results are shown in FIG. 2, panels A and B. From these studies, the compounds were classified and ranked based on their NO release behavior as shown in the Table below.

Compound	Release Behavior
CCN(CC)/[N+]([O-])=N/OCN1C(=O)c2ccccc2C1=O [Compound 506-3-81, (Z)-1-((1,3-dioxoisoindolin-2-yl)methoxy)-3,3-diethyltriaz-1-ene 2-oxide]	unstable
O=C1c2ccccc2C(=O)N1CO/N=[N+](\[O-])N1CCCC1CO (stereo not shown) [Compound 506-3-91, (Z)-2-((1,3-dioxoisoindolin-2-yl)methoxy)-1-(2-(hydroxymethyl)pyrrolidin-1-yl)diazene oxide]	unstable
CCN(CC)/[N+]([O-])=N/OCOC(=O)C(C)(C)NC(=O)OC(C)(C)C [Compound 506-3-93, (Z)-3-ethyl-10,10,14,14-tetramethyl-9,12-dioxo-6,8,13-trioxa-3,4,5,11-tetraazapentadec-4-ene 4-oxide]	slow/low release
CCN(CC)/[N+]([O-])=N/OCSC [Compound 506-3-103, (Z)-3,3-diethyl-1-((methylthio)methoxy)triaz-1-ene 2-oxide]	slow/low release
CCCCCCCCCCC(=O)OCO/N=[N+](\[O-])N(CC)CC [Compound 506-3-111, (Z)-3,3-diethyl-1-((undecanoyloxy)methoxy)triaz-1-ene 2-oxide]	quick/long release
CCN(CC)/[N+]([O-])=N/OCOC(=O)[C@@H](NC(=O)OC(C)(C)C)C(C)C [Compound 506-3-113, (S,Z)-3-ethyl-10-isopropyl-14,14-dimethyl-9,12-dioxo-6,8,13-trioxa-3,4,5,11-tetraazapentadec-4-ene 4-oxide]	slow onset
CCC(CC)C(=O)OCO/N=[N+](\[O-])N(CC)CC [Compound 506-3-115, (Z)-3,3-diethyl-1-(((2-ethylbutanoyl)oxy)methoxy)triaz-1-ene 2-oxide]	slow onset
CC(C)(C)C(=O)OCO/N=[N+](\[O-])N1CCCC1CO (stereo not shown) [Compound 506-3-117, (Z)-1-(2-(hydroxymethyl)pyrrolidin-1-yl)-2-((pivaloyloxy)methoxy)diazene oxide]	steady

The next lines start with the values.

Release Behavior	Compound
slow/low release	CC(C)OC(=O)OCO/N=[N+](\[O-])N1CCCC1CO (stereo not shown) [Compound 506-3-121, (Z)-1-(2-(hydroxymethyl)pyrrolidin-1-yl)-2-(((isopropoxycarbonyl)oxy)methoxy)diazene oxide]
slow/low release	CSCO/N=[N+](\[O-])N1CCCC1CO (stereo not shown) [Compound 506-3-123, (Z)-1-(2-(hydroxymethyl)pyrrolidin-1-yl)-2-((methylthio)methoxy)diazene oxide]
steady/low	CCN(CC)/[N+]([O-])=N/OC(C)OC(=O)OC(C)C (stereo not shown) [Compound 506-3-131, (Z)-3-ethyl-7,11-dimethyl-9-oxo-6,8,10-trioxa-3,4,5-triazadodec-4-ene 4-oxide]
unstable	CCN(CC)/[N+]([O-])=N/OC(C)OC(=O)OC(C)(C)C (stereo not shown) [Compound 506-3-133, (Z)-3-ethyl-7,11,11-trimethyl-9-oxo-6,8,10-trioxa-3,4,5-triazadodec-4-ene 4-oxide]
intermediate	CCCC(=O)OCO/N=[N+](\[O-])N(CC)CC [Compound 506-3-143, (Z)-1-((butyryloxy)methoxy)-3,3-diethyltriaz-1-ene 2-oxide]
steady	CCN(CC)/[N+]([O-])=N/OCOC(=O)c1ccccc1 [Compound 506-3-145, (Z)-1-((benzoyloxy)methoxy)-3,3-diethyltriaz-1-ene 2-oxide]
slow onset	CCC(CC)C(=O)OCO/N=[N+](\[O-])N1CCCC1CO (stereo not shown) [Compound 506-3-149, (Z)-2-(((2-ethylbutanoyl)oxy)methoxy)-1-(2-(hydroxymethyl)pyrrolidin-1-yl)diazene oxide]
slow onset	O=C(OCO/N=[N+](\[O-])N1CCCC1CO)c1ccccc1 (stereo not shown) [Compound 506-3-151, (Z)-2-((benzoyloxy)methoxy)-1-(2-(hydroxymethyl)pyrrolidin-1-yl)diazene oxide]
steady/low	CCCC(=O)OCO/N=[N+](\[O-])N1CCCC1CO (stereo not shown) [Compound 506-3-153, (Z)-2-((butyryloxy)methoxy)-1-(2-(hydroxymethyl)pyrrolidin-1-yl)diazene oxide]
slow/low release	CCN(CC)/[N+]([O-])=N/OC[S+](C)[O-] (stereo not shown) [Compound 506-3-157, (Z)-3,3-diethyl-1-((methylsulfinyl)methoxy)triaz-1-ene 2-oxide]
slow/low release	C[S+]([O-])CO/N=[N+](\[O-])N1CCCC1CO (stereo not shown) [Compound 506-3-159, (Z)-1-(2-(hydroxymethyl)pyrrolidin-1-yl)-2-((methylsulfinyl)methoxy)diazene oxide]

Tested on: not listed separately
Assay: Stability of the pure compound on storage
Format: physicochemical
Conditions: not given

Compound	stability of the pure compound
CCCCCCCCCCC(=O)OCO/N=[N+](\[O-])N(CC)CC [Compound 506-3-111, (Z)-3,3-diethyl-1-((undecanoyloxy)methoxy)triaz-1-ene 2-oxide]	stable for over one year

Tested on: diabetic Lep/r-db/db mice
Assay: Initial dose range wound healing study, murine diabetic wound model, PVA gel
Format: in vivo
Conditions: PVA gel with 10, 50, 100 uM test article versus PVA gel alone, applied twice a day, day 7, 1-cm^2 full-thickness wound
Method: A murine diabetic wound model for utilized to test the ability of the gel formulation of the invention to accelerate wound healing. Specifically, diabetic Lep/r-db/db mice were used to study the effects of the gel formulation on granulation tissue thickness, density of α-smooth muscle actin-positive myofibroblasts, wound healing kinetics, blood vessel density, cell proliferation, and tissue ingrowth.
An initial dose range study was performed to study the effects of the compounds of the invention on wound healing. Five homozygous diabetic 8-12 weeks old, Lep/r-db/db male mice (strain C57BL/KsJ-Leprdb) were anesthetized with 60 mg/kg pentobarbital and disinfected with 70% alcohol. Subsequently, a 1-cm^2 full-thickness wound was excised on the dorsa of the mice. The mice were then treated with either PVA gel containing no test article (Control), PVA gel containing test article (i.e., compound 506-3-111) at 10 uM concentration, PVA gel containing test article at 50 uM concentration, or PVA gel containing test article at 100 uM concentration. Immediately after wounding, the experimental groups had the NO releasing gel material applied to the wound twice a day and the control group had only the un-medicated gel applied to the wound. Dressing changes were performed twice daily. […]

Compound	wound size
CCCCCCCCCCC(=O)OCO/N=[N+](\[O-])N(CC)CC [Compound 506-3-111, (Z)-3,3-diethyl-1-((undecanoyloxy)methoxy)triaz-1-ene 2-oxide]	clear dose dependent reduction in wound size

Same assay, conditions: PVA gel, 10 to 100 uM, topical twice a day, 7 days

Compound	tolerability (adverse effects or toxicity)
CCCCCCCCCCC(=O)OCO/N=[N+](\[O-])N(CC)CC [Compound 506-3-111, (Z)-3,3-diethyl-1-((undecanoyloxy)methoxy)triaz-1-ene 2-oxide]	well tolerated with no adverse effects or toxicity even at the highest dose
